Columns and labels:
[1] = test system: POAAN; test: Herbicidal post-emergence action 1b (twin sowing, 1280 g/ha); type: in vivo, Poa annua; conditions: dosage 1280 g/ha, visual rating about 3 weeks after treatment
In short: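 Twin-sown weeds in sandy loam, greenhouse-grown 2–3 weeks, sprayed post-emergence at one-leaf stage with WP/EC formulations plus 0.5% additive at 600 L/ha water. Damage rated visually about 3 weeks later versus untreated controls (100% = plants dead, 0% = like control).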

[2] = test system: DIGSA; test: as above; type: in vivo, Digitaria sanguinalis; conditions: dosage 1280 g/ha, visual rating about 3 weeks after treatment
Procedure: (§1) [table] b) Seeds of mono- and dicotyledonous weed plants are placed in plastic pots in sandy loam soil (twin sowing with one species each of mono- or dicotyledonous weed plants per pot), covered with soil and cultivated in a greenhouse under controlled growth conditions. 2 to 3 weeks after sowing, the test plants are treated at the one-leaf stage. The compounds of the invention, formulated in the form of wettable powders (WP) or as emulsion concentrates (EC), are applied to the green parts of the plants as aqueous suspension or emulsion with addition of 0.5% additive at a water application rate equivalent to 600 litres per hectare. After the test plants have been kept in the greenhouse under optimum growth conditions for about 3 weeks, the activity of the preparations is rated visually in comparison to untreated controls. For example, 100% activity=the plants have died, 0% activity=like control plants. Tables A16 to A21 below show the effects of selected compounds of the general formula (I) according to Tables 1 and 2 on various harmful plants and at an application rate corresponding to 1280 g/ha, which were obtained by the experimental procedure mentioned above.

[3] = test system: MATIN; test: as above; type: in vivo, Matricaria inodora; conditions: dosage 1280 g/ha, visual rating about 3 weeks after treatment
Procedure: as §1

[4] = test system: POAAN; test: Herbicidal pre-emergence action 2b (doubly sown, 1280 g/ha); type: in vivo, Poa annua; conditions: doubly sown pots, dosage 1280 g/ha, visual scoring after about 3 weeks
In short: (§2)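 Pots of sandy loam doubly sown with one monocot and one dicot weed species, covered, then soil surface sprayed pre-emergence with WP or EC formulations plus 0.5% additive at 600 l/ha water. Greenhouse-grown about 3 weeks; activity scored visually as % versus untreated controls (100% = dead).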

[5] = test system: DIGSA; test: as above; type: in vivo, Digitaria sanguinalis; conditions: doubly sown pots, dosage 1280 g/ha, visual scoring after about 3 weeks
From the text: [table] b) Seeds of mono- and dicotyledonous weed plants are placed in plastic pots in sandy loam soil (doubly sown with one species each of mono- or dicotyledonous weed plants per pot) and covered with soil. The compounds of the invention, formulated in the form of wettable powders (WP) or as emulsion concentrates (EC), are then applied onto the surface of the covering soil as aqueous suspension or emulsion with addition of 0.5% additive at a water application rate equivalent to 600 litres per hectare. After the treatment, the pots are placed in a greenhouse and kept under good growth conditions for the trial plants. After about 3 weeks, the effect of the preparations is scored visually in comparison with untreated controls as percentages. For example, 100% activity=the plants have died, 0% activity=like control plants. Tables B16 to B21 below show the effects of selected compounds of the general formula (I) according to Tables 1 and 2 on various harmful plants and at an application rate corresponding to 1280 g/ha, which were obtained by the experimental procedure mentioned above.

[6] = test system: AMARE; test: as above; type: in vivo, Amaranthus retroflexus; conditions: doubly sown pots, dosage 1280 g/ha, visual scoring after about 3 weeks
In short: as §2

[7] = test system: MATIN; test: as above; type: in vivo, Matricaria inodora; conditions: doubly sown pots, dosage 1280 g/ha, visual scoring after about 3 weeks
In short: as §2

[8] = test system: STEME; test: as above; type: in vivo, Stellaria media; conditions: doubly sown pots, dosage 1280 g/ha, visual scoring after about 3 weeks
In short: as §2

[9] = test system: ECHCG; test: Herbicidal post-emergence action 1b (twin sowing, 1280 g/ha); type: in vivo, Echinochloa crus-galli; conditions: dosage 1280 g/ha, visual rating about 3 weeks after treatment
Procedure: as §1

[10] = test system: ECHCG; test: Herbicidal pre-emergence action 2b (doubly sown, 1280 g/ha); type: in vivo, Echinochloa crus-galli; conditions: doubly sown pots, dosage 1280 g/ha, visual scoring after about 3 weeks
In short: as §2

[11] = test system: ALOMY; test: Herbicidal post-emergence action 1a (greenhouse pots, visual rating); type: in vivo, Alopecurus myosuroides; conditions: Dosage 320 g/ha; rated visually about 3 weeks after treatment; 100% = plants have died, 0% = like control plants
In short: (§3)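 Weeds and crops sown in sandy loam in greenhouse pots were sprayed post-emergence at the one-leaf stage (2–3 weeks after sowing) with WP or EC formulations plus 0.5% additive at 600 l/ha water, 320 and/or 80 g/ha. About 3 weeks later damage was rated visually against untreated controls (0% = no effect, 100% = dead).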

[12] = test system: AVEFA; test: as above; type: in vivo, Avena fatua; conditions: Dosage 320 g/ha; rated visually about 3 weeks after treatment; 100% = plants have died, 0% = like control plants
In short: as §3

[13] = test system: ECHCG; test: as above; type: in vivo, Echinochloa crus-galli; conditions: Dosage 320 g/ha; rated visually about 3 weeks after treatment; 100% = plants have died, 0% = like control plants
Procedure: (§4) [table] a) Seeds of monocotyledonous and dicotyledonous weeds and crop plants are placed in sandy loam in plastic or organic plant pots, covered with soil and cultivated in a greenhouse under controlled growth conditions. 2 to 3 weeks after sowing, the test plants are treated at the one-leaf stage. The compounds of the invention, formulated in the form of wettable powders (WP) or as emulsion concentrates (EC), are then sprayed onto the green parts of the plants as aqueous suspension or emulsion with addition of 0.5% additive at a water application rate of 600 1/ha (converted). After the test plants have been kept in the greenhouse under optimum growth conditions for about 3 weeks, the activity of the preparations is rated visually in comparison to untreated controls. For example, 100% activity=the plants have died, 0% activity=like control plants. Tables A1 to A15 below show the effects of selected compounds of the general formula (I) according to Tables 1 and 2 on various harmful plants and an application rate corresponding to 320 g/ha and/or 80 g/ha, which were obtained by the experimental procedure mentioned above.

[14] = test system: LOLRI; test: as above; type: in vivo, Lolium rigidum; conditions: Dosage 320 g/ha; rated visually about 3 weeks after treatment; 100% = plants have died, 0% = like control plants
Procedure: as §4

[15] = test system: SETVI; test: as above; type: in vivo, Setaria viridis; conditions: Dosage 320 g/ha; rated visually about 3 weeks after treatment; 100% = plants have died, 0% = like control plants
In short: as §3

[16] = test system: ABUTH; test: as above; type: in vivo, Abutilon theophrasti; conditions: dosage 320 g/ha, visual rating about 3 weeks after treatment
In short: as §3

[17] = test system: AMARE; test: as above; type: in vivo, Amaranthus retroflexus; conditions: dosage 320 g/ha, visual rating about 3 weeks after treatment
In short: as §3

[18] = test system: MATIN; test: as above; type: in vivo, Matricaria inodora; conditions: dosage 320 g/ha, visual rating about 3 weeks after treatment
Procedure: as §4

[19] = test system: PHBPU; test: as above; type: in vivo, Pharbitis purpurea; conditions: dosage 320 g/ha, visual rating about 3 weeks after treatment
Procedure: as §4

[20] = test system: POLCO; test: as above; type: in vivo, Polygonum convolvulus; conditions: dosage 320 g/ha, visual rating about 3 weeks after treatment
In short: as §3

[21] = test system: VERPE; test: as above; type: in vivo, Veronica persica; conditions: visual rating about 3 weeks after treatment
In short: as §3

[22] = test system: ECHCG; test: Herbicidal pre-emergence action 2a (greenhouse pots, visual scoring); type: in vivo, Echinochloa crus-galli; conditions: dosage 320 g/ha, visual scoring after about 3 weeks
From the text: (§5) [table] a) Seeds of monocotyledonous and dicotyledonous weed plants and crop plants are placed in plastic or organic plant pots and covered with soil. The compounds of the invention, formulated in the form of wettable powders (WP) or as emulsion concentrates (EC), are then applied onto the surface of the covering soil as aqueous suspension or emulsion with addition of 0.5% additive at a water application rate of 600 1/ha (converted). After the treatment, the pots are placed in a greenhouse and kept under good growth conditions for the trial plants. After about 3 weeks, the effect of the preparations is scored visually in comparison with untreated controls as percentages. For example, 100% activity=the plants have died, 0% activity=like control plants. Tables B1 to B15 below show the effects of selected compounds of the general formula (I) according to Tables 1 and 2 on various harmful plants and an application rate corresponding to 320 g/ha and/or 80 g/ha, which were obtained by the experimental procedure mentioned above.

[23] = test system: LOLRI; test: as above; type: in vivo, Lolium rigidum; conditions: dosage 320 g/ha, visual scoring after about 3 weeks vs untreated controls
In short: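 The soil covering sown seeds is treated with an aqueous suspension or emulsion of wettable powder or emulsion concentrate (0.5% additive, 600 l/ha), corresponding to 320 g/ha and/or 80 g/ha. After about 3 weeks of greenhouse growth, damage is scored visually as a percentage.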

[24] = test system: MATIN; test: as above; type: in vivo, Matricaria inodora; conditions: dosage 320 g/ha, visual scoring after about 3 weeks vs untreated controls
From the text: as §5

SMILES | Post-emergence action at 1280 g/ha against POAAN in % [1] | Post-emergence action at 1280 g/ha against DIGSA in % [2] | Post-emergence action at 1280 g/ha against MATIN in % [3] | Pre-emergence action at 1280 g/ha against POAAN in % [4] | Pre-emergence action at 1280 g/ha against DIGSA in % [5] | Pre-emergence action at 1280 g/ha against AMARE in % [6] | Pre-emergence action at 1280 g/ha against MATIN in % [7] | Pre-emergence action at 1280 g/ha against STEME in % [8] | Post-emergence action at 1280 g/ha against ECHCG in % [9] | Pre-emergence action at 1280 g/ha against ECHCG in % [10] | further results
COC(=O)COc1nn(-c2cnccn2)c(-c2cnc(F)c(F)c2)c1Br [Example I-42] | 100% | 90% | 100% | 100% | 100% | 90% | 90% | 90% | – | – | –
COC(=O)[C@H](C)Oc1nn(-c2cnccn2)c(-c2ccc(F)nc2)c1C#N [Example I-26] | 100% | – | 100% | 100% | 100% | 90% | – | 100% | 100% | 100% | –
CCOC(=O)COc1nn(-c2nccnc2F)c(-c2ccc(F)c(F)c2)c1Br [Example I-74] | 90% | 90% | 90% | 100% | 100% | 100% | 100% | 100% | – | – | –
CCOC(=O)COc1nn(-c2nccnc2Cl)c(-c2ccc(F)nc2)c1Br [Example I-71] | 100% | 90% | 100% | 100% | 100% | 100% | 100% | 100% | 100% | 100% | –
CCOC(=O)COc1nn(-c2cnccn2)c(-c2cncc(F)c2)c1F [Example I-94] | – | – | – | – | – | – | – | – | – | – | Post-emergence action against ALOMY in % [11]: 80%; Post-emergence action against AVEFA in % [12]: 80%; Post-emergence action against ECHCG in % [13]: 90%; Post-emergence action against LOLRI in % [14]: 90%; Post-emergence action against SETVI in % [15]: 90%; Post-emergence action against ABUTH in % [16]: 90%; Post-emergence action against AMARE in % [17]: 80%; Post-emergence action against MATIN in % [18]: 80%; Post-emergence action against PHBPU in % [19]: 100%; Post-emergence action against POLCO in % [20]: 80%; Post-emergence action against VERPE in % ([21]; dosage 80 g/ha): 90%; Post-emergence action against VERPE in % ([21]; dosage 320 g/ha): 90%; Pre-emergence action against ECHCG in % [22]: 100%; Pre-emergence action against LOLRI in % [23]: 90%; Pre-emergence action against MATIN in % [24]: 90%
COC(=O)COc1nn(-c2cnccn2)c(-c2ccnc(F)c2)c1Cl [Example I-06] | – | – | 90% | 100% | – | 90% | 90% | 100% | 100% | 100% | –
COC(=O)[C@@H](C)Oc1nn(-c2cnccn2)c(-c2ccnc(F)c2)c1C#N [Example I-35] | 100% | 90% | – | 100% | 90% | 90% | – | 100% | – | – | –
